Test results reported in ChEMBL document CHEMBL1158087, “Gracilarioside and gracilamides from the red alga Gracilaria asiatica” (2006).

What was measured:
[1] = Cytotoxicity against human A375S2 cells assessed as induction of cell death at 20 ug/mL by MTT assay; format: functional, A375-S2
[2] = Cytotoxicity against human A375S2 cells assessed as induction of cell death at 30 ug/mL by MTT assay; format: functional, A375-S2

Structure (SMILES)	Activity [1] [%]	Activity [2] [%]
CCCCCCCCCCCCCCCCCCCCCCC[C@@H](O)C(=O)N[C@@H](CO[C@@H]1O[C@H](CO)[C@@H](O)[C@H](O)[C@H]1O)[C@H](O)[C@H](O)C/C=C/CCCCC1CC1CCCC (stereo partly drawn) [GRACILARIOSIDE]	18.2	–
CCCCCCCCCCCCCCCCCCCCCCC[C@@H](O)C(=O)N[C@@H](CO)[C@H](O)[C@H](O)C/C=C/CCCCC1CC1CCCC (stereo partly drawn) [GRACILAMIDE A]	–	11.7
CCCCCCCCCCCCCCCCCCCCCC[C@@H](O)[C@@H](O)[C@H](CO)NC(=O)[C@H](O)CCCCCCCCC1CC1CCCC (stereo partly drawn) [GRACILAMIDE B]	–	11.7
